Measurements: the NIST ThermoML archive (doi:10.1016/j.jct.2010.08.020)
“And” between values parts separate entries of the source, which are not always exact repeats. Equal entries are not always repeated. ± gives the expanded uncertainty stated by the source. Blank lines part the entries; values can stand above or below the molecule they belong to.

How the values were obtained:
[1] = molar enthalpy of vaporization or sublimation; details: 298.15 K; Crystal; drop (calvet) calorimetry
[2] = Crystal; for vapor or sublimation pressure: Calculated from knudsen effusion weight loss

Compound: Oc1ccc(Br)cc1Br [2,4-dibromophenol]
molar enthalpy [1]: 19.4 ± 0.717 kcal/mol

Compound: Oc1c(Br)cccc1Br [2,6-dibromophenol]
molar enthalpy [1]: 19.9 ± 0.717 kcal/mol

molar enthalpy of sublimation ([2]; 298.15 K, drop (calvet) calorimetry): 22.5 ± 0.86 kcal/mol
Compound: Oc1cc(Br)cc(Br)c1 [3,5-dibromophenol]
vapor or sublimation pressure ([2]; 299.19 K): 0.00012 ± 6e-06 kPa and 0.000118 ± 6e-06 kPa and 0.000117 ± 6e-06 kPa | vapor or sublimation pressure ([2]; 301.19 K): 0.000157 ± 8e-06 kPa and 0.000146 ± 7e-06 kPa and 0.000151 ± 8e-06 kPa | vapor or sublimation pressure ([2]; 303.2 K): 0.000196 ± 1e-05 kPa and 0.000184 ± 9e-06 kPa and 0.000189 ± 9e-06 kPa | vapor or sublimation pressure ([2]; 305.11 K): 0.000244 ± 1.2e-05 kPa and 0.000242 ± 1.2e-05 kPa and 0.000241 ± 1.2e-05 kPa | vapor or sublimation pressure ([2]; 307.18 K): 0.000325 ± 1.6e-05 kPa and 0.000315 ± 1.6e-05 kPa and 0.000317 ± 1.6e-05 kPa | vapor or sublimation pressure ([2]; 309.11 K): 0.000407 ± 2e-05 kPa and 0.000414 ± 2.1e-05 kPa and 0.000389 ± 1.9e-05 kPa | vapor or sublimation pressure ([2]; 311.13 K): 0.000502 ± 2.5e-05 kPa and 0.000501 ± 2.5e-05 kPa and 0.000493 ± 2.5e-05 kPa | vapor or sublimation pressure ([2]; 313.19 K): 0.000663 ± 3.3e-05 kPa and 0.000629 ± 3.2e-05 kPa and 0.00065 ± 3.3e-05 kPa | vapor or sublimation pressure ([2]; 315.21 K): 0.000813 ± 4.1e-05 kPa and 0.000838 ± 4.2e-05 kPa and 0.000801 ± 4e-05 kPa | vapor or sublimation pressure ([2]; 317.12 K): 0.001011 ± 0.0001 kPa and 0.001023 ± 0.0001 kPa and 0.000993 ± 5e-05 kPa
